47 compounds from ChEMBL document CHEMBL1133531, “Carbonic anhydrase inhibitors: perfluoroalkyl/aryl-substituted derivatives of aromatic/heterocyclic sulfonamides as topical intraocular pressure-lowering agents with prolonged duration of action” (J Med Chem, 2000) can be followed below.

What is called Ki is a measure of affinity in units of concentration, obtained from inhibition or displacement. The term logD denotes lipophilicity at a set pH, counting ionised and neutral species. A low value points to a more hydrophilic compound. A word on the solubility: it is the concentration that dissolves in the medium under given conditions.

One data set concerns the target Carbonic anhydrase 1 (Homo sapiens, UniProt P00915).
A further data set has as its target T1, Carbonic anhydrase 4 (Bos taurus, UniProt Q95323).
T1 sequence (Q95323 whole entry): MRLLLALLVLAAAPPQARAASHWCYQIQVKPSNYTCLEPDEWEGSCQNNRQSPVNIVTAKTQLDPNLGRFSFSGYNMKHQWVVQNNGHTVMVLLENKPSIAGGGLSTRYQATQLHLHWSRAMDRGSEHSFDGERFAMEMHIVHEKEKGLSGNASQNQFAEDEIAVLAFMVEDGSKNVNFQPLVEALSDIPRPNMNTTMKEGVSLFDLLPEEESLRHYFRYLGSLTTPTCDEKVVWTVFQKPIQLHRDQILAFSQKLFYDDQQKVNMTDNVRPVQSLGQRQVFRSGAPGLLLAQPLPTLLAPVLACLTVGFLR

For data set [1], the species on record is Oryctolagus cuniculus.
Description: Tested for in vivo IOP-lowering of normotensive albino rabbits after topical administration at the specified interval (30 min) at pH 7
The species named for data set [2] is Oryctolagus cuniculus. This is another data set of the same source.
Description: Tested for in vivo IOP-lowering of normotensive albino rabbits after topical administration at the specified interval (60 min) at pH 7
The species entered for data set [3] is Oryctolagus cuniculus. This is another data set of the same source.
Description: Tested for in vivo IOP-lowering of normotensive albino rabbits after topical administration at the specified interval (90 min) at pH 7
A short description of data set [4]: Partition coefficient (logD) (chloroform-buffer). The format is physicochemical.
The species named for data set [5] is Oryctolagus cuniculus. The source holds these as a separate data set.
Description: In vitro transcorneal accession rate in rabbit corneal denuded epithelium
The species named for data set [6] is Oryctolagus cuniculus. The source holds these as a separate data set.
Description: In vitro transcorneal accession rate in rabbit corneal intact epithelium
A short description of a further data set: physchem. The note with it: pH 7.4 buffer.
The conditions of data set [7]: octanol/water.
Description: Partition coefficient (logD) (chloroform/buffer)

Values after ≈ are worked out from the molar mass of the structure shown.

Chain of Carbonic anhydrase 1 (P00915 whole entry): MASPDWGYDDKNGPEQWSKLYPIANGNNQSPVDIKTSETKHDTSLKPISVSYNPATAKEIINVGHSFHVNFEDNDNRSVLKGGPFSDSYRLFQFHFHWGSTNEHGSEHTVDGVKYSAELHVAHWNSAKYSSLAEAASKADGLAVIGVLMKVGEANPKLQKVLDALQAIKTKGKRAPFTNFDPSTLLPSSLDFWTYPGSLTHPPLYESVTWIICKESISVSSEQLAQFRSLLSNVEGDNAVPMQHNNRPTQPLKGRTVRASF
Description for Carbonic anhydrase 1: Inhibition of human recombinant carbonic anhydrase I (CA1)
Description for Carbonic anhydrase 4: Inhibition of bovine carbonic anhydrase IV (CA4) from bovine lung microsomes
Description for physchem: Tested for solubility in pH 7.4 buffer, at 25 Degree C

With `NS(=O)(=O)c1ccc(COC(=O)C(F)(F)C(F)(F)C(F)(F)C(F)(F)C(F)(F)C(F)(F)C(F)(F)C(F)(F)F)cc1`, the values for the Ki at Carbonic anhydrase 1 and at Carbonic anhydrase 4 were 15000 nM and 11000 nM, respectively.
`Cn1nc(S(N)(=O)=O)s/c1=N/S(=O)(=O)c1ccc(NS(=O)(=O)c2c(F)c(F)c(F)c(F)c2F)cc1`: the Ki on Carbonic anhydrase 1 turned out to be 21 nM; on Carbonic anhydrase 4, 9 nM.
Regarding `NS(=O)(=O)c1nnc(NC(=O)CCNS(=O)(=O)c2c(F)c(F)c(F)c(F)c2F)s1`, the Ki was 200 nM on Carbonic anhydrase 1 and 9 nM at Carbonic anhydrase 4. The “Delta IOP” value in the data set filed under Oryctolagus cuniculus [1] is recorded as 4 mmHg; in the data set filed under Oryctolagus cuniculus [2], 7.5 mmHg; in the data set filed under Oryctolagus cuniculus [3] it was 6.1 mmHg.
Turning to `NS(=O)(=O)c1ccc(COS(=O)(=O)c2c(F)c(F)c(F)c(F)c2F)cc1`, the Ki amounted to 290 nM on Carbonic anhydrase 1 and 100 nM on Carbonic anhydrase 4.
`NS(=O)(=O)c1nc2ccc(NS(=O)(=O)c3c(F)c(F)c(F)c(F)c3F)cc2s1`: the Ki on Carbonic anhydrase 1 was 41 nM; at Carbonic anhydrase 4, 5 nM. Further, the “Delta IOP” value in the data set listed under Oryctolagus cuniculus [1] is given as 3 mmHg; in the data set filed under Oryctolagus cuniculus [2], 8 mmHg; in the data set listed under Oryctolagus cuniculus [3], 6.6 mmHg.
As for `NS(=O)(=O)c1ccccc1NS(=O)(=O)C(F)(F)C(F)(F)C(F)(F)C(F)(F)F`, the figures for the Ki at Carbonic anhydrase 1 and on Carbonic anhydrase 4 were 22000 nM and 900 nM, respectively.
The matching figures for `NS(=O)(=O)c1ccccc1NS(=O)(=O)c1c(F)c(F)c(F)c(F)c1F`: 1390 nM and 680 nM.
The matching figures for `NS(=O)(=O)c1ccc(NS(=O)(=O)C(F)(F)F)c(F)c1`: 100000 nM and 29000 nM.
The matching figures for `NS(=O)(=O)c1nc2ccc(OCCOC(=O)c3c(F)c(F)c(F)c(F)c3F)cc2s1`: 65 nM and 11 nM.
Turning to `NS(=O)(=O)c1ccc(NS(=O)(=O)C(F)(F)C(F)(F)C(F)(F)C(F)(F)C(F)(F)C(F)(F)C(F)(F)C(F)(F)F)c(Br)c1`, the Ki at Carbonic anhydrase 1 stood at 2550 nM; at Carbonic anhydrase 4, 12500 nM.
On the same counts, the results for `NS(=O)(=O)c1nnc(NS(=O)(=O)C(F)(F)C(F)(F)C(F)(F)C(F)(F)C(F)(F)C(F)(F)C(F)(F)C(F)(F)F)s1` are 400 nM and 12 nM.
Take `NS(=O)(=O)c1nnc(NS(=O)(=O)c2ccc(NS(=O)(=O)c3c(F)c(F)c(F)c(F)c3F)cc2)s1`: the Ki at Carbonic anhydrase 1 came out at 24 nM; on Carbonic anhydrase 4, 8 nM.
On the same counts, the results for `NS(=O)(=O)c1ccc(CCOS(=O)(=O)C(F)(F)F)cc1` are 80000 nM and 45000 nM.
On the same counts, the results for `NS(=O)(=O)c1cccc(NS(=O)(=O)C(F)(F)F)c1` are 188000 nM and 95300 nM.
For the compound `NS(=O)(=O)c1ccc(NS(=O)(=O)C(F)(F)F)cc1`, the Ki was 166000 nM at Carbonic anhydrase 1 and 64600 nM on Carbonic anhydrase 4.
For the compound `Cn1nc(S(N)(=O)=O)s/c1=N/S(=O)(=O)c1ccc(NS(=O)(=O)C(F)(F)C(F)(F)C(F)(F)C(F)(F)F)cc1`, the inhibitory constant (Ki) at Carbonic anhydrase 1 came out at 1000 nM; on Carbonic anhydrase 4, 24 nM.
`NS(=O)(=O)c1nc2ccc(NC(=O)C(F)(F)C(F)(F)C(F)(F)C(F)(F)C(F)(F)C(F)(F)C(F)(F)C(F)(F)F)cc2s1`: the Ki on Carbonic anhydrase 1 came out at 45 nM; on Carbonic anhydrase 4, 9 nM.
The matching figures for `NS(=O)(=O)c1nnc(NC(=O)CCNS(=O)(=O)C(F)(F)F)s1`: 3000 nM and 40 nM.
Regarding `NS(=O)(=O)c1cccc(NS(=O)(=O)c2ccc(NS(=O)(=O)C(F)(F)C(F)(F)C(F)(F)C(F)(F)C(F)(F)C(F)(F)C(F)(F)C(F)(F)F)cc2)c1`, the figures for the inhibitory constant (Ki) at Carbonic anhydrase 1 and at Carbonic anhydrase 4 were 3600 nM and 33 nM, respectively.
For the compound `NS(=O)(=O)c1ccc(Nc2ccnc(NS(=O)(=O)C(F)(F)C(F)(F)C(F)(F)C(F)(F)C(F)(F)C(F)(F)C(F)(F)C(F)(F)F)n2)cc1`, the inhibition constant Ki at Carbonic anhydrase 1 came to 4500 nM; on Carbonic anhydrase 4, 34 nM.
As to `NS(=O)(=O)c1nc2ccc(OCCOS(=O)(=O)c3c(F)c(F)c(F)c(F)c3F)cc2s1`, the inhibition constant Ki at Carbonic anhydrase 1 turned out to be 18 nM; at Carbonic anhydrase 4 it was 7 nM.
On to `NS(=O)(=O)c1ccc(CNS(=O)(=O)C(F)(F)C(F)(F)C(F)(F)C(F)(F)C(F)(F)C(F)(F)C(F)(F)C(F)(F)F)cc1`, for which the Ki at Carbonic anhydrase 1 came to 1000 nM; at Carbonic anhydrase 4 it was 705 nM.
Regarding `NS(=O)(=O)c1ccc(COS(=O)(=O)C(F)(F)F)cc1`, the Ki at Carbonic anhydrase 1 was 135000 nM; at Carbonic anhydrase 4 it was 24100 nM.
As to `Cn1nc(S(N)(=O)=O)s/c1=N/S(=O)(=O)c1ccc(NS(=O)(=O)C(F)(F)F)cc1`, the figures for the Ki at Carbonic anhydrase 1 and on Carbonic anhydrase 4 were 1000 nM and 33 nM, respectively.
For `NS(=O)(=O)c1ccc(NC(=O)C(F)(F)C(F)(F)C(F)(F)C(F)(F)C(F)(F)C(F)(F)C(F)(F)C(F)(F)F)cc1`, the inhibitory constant (Ki) was determined as 1400 nM on Carbonic anhydrase 1 and 850 nM on Carbonic anhydrase 4.
Turning to `NS(=O)(=O)c1ccc(NS(=O)(=O)C(F)(F)C(F)(F)C(F)(F)C(F)(F)C(F)(F)C(F)(F)C(F)(F)C(F)(F)F)c(I)c1`, the Ki on Carbonic anhydrase 1 came to 3400 nM; at Carbonic anhydrase 4, 15000 nM.
On the same counts, the results for `NS(=O)(=O)c1ccc(NS(=O)(=O)C(F)(F)F)c(I)c1` are 210000 nM and 49000 nM.
Regarding `NS(=O)(=O)c1ccc(NNC(=O)c2c(F)c(F)c(F)c(F)c2F)cc1`, the values for the Ki at Carbonic anhydrase 1 and on Carbonic anhydrase 4 were 1500 nM and 980 nM, respectively.
With `NS(=O)(=O)c1nnc(NS(=O)(=O)C(F)(F)C(F)(F)C(F)(F)C(F)(F)F)s1`, the log distribution coefficient (logD) in data set [4] is on record as 1.525. Further, the inhibition constant Ki at Carbonic anhydrase 1 was determined as 360 nM; at Carbonic anhydrase 4 it was 9 nM. Also, the “Delta IOP” value in the data set filed under Oryctolagus cuniculus [1] came out at 2.8 mmHg; in the data set listed under Oryctolagus cuniculus [2] it was 8.5 mmHg; in the data set listed under Oryctolagus cuniculus [3], 5.6 mmHg. For the same compound, the Kin is 7000 h⁻¹ in the data set filed under Oryctolagus cuniculus [5] and 4300 h⁻¹ in the data set filed under Oryctolagus cuniculus [6]. This compound also showed a solubility in the data set “physchem” of 50 mM (≈ 23.1 mg/mL).
In turn, `NS(=O)(=O)c1nnc(NC(=O)c2c(F)c(F)c(F)c(F)c2F)s1` yielded a logD in [4] of 2.245. Moreover, the Ki was determined as 250 nM on Carbonic anhydrase 1 and 10 nM on Carbonic anhydrase 4. Further, the “Delta IOP” value came to 2.2 mmHg in the data set listed under Oryctolagus cuniculus [1], 7.3 mmHg in the data set filed under Oryctolagus cuniculus [2] and 6.5 mmHg in the data set filed under Oryctolagus cuniculus [3]. Besides, the Kin in the data set filed under Oryctolagus cuniculus [5] is 10100 h⁻¹; in the data set filed under Oryctolagus cuniculus [6] it was 4800 h⁻¹. In “physchem”, this compound yielded a solubility of 43 mM (≈ 16.1 mg/mL).
On to `NS(=O)(=O)c1nc2ccc(OCCOS(=O)(=O)C(F)(F)C(F)(F)C(F)(F)C(F)(F)C(F)(F)C(F)(F)C(F)(F)C(F)(F)F)cc2s1`, for which the Ki amounted to 17 nM at Carbonic anhydrase 1 and 5 nM at Carbonic anhydrase 4.
Regarding `NS(=O)(=O)c1cc(S(N)(=O)=O)c(NS(=O)(=O)C(F)(F)C(F)(F)C(F)(F)C(F)(F)F)cc1Cl`, the inhibitory constant (Ki) is 400 nM at Carbonic anhydrase 1 and 43 nM on Carbonic anhydrase 4.
The matching figures for `NS(=O)(=O)c1ccc(NS(=O)(=O)c2c(F)c(F)c(F)c(F)c2F)cc1`: 890 nM and 410 nM.
On the same counts, the results for `NS(=O)(=O)c1cccc(NS(=O)(=O)c2c(F)c(F)c(F)c(F)c2F)c1` are 1100 nM and 500 nM.
In data set [4], `NS(=O)(=O)c1nnc(NS(=O)(=O)c2ccc(NS(=O)(=O)C(F)(F)C(F)(F)C(F)(F)C(F)(F)C(F)(F)C(F)(F)C(F)(F)C(F)(F)F)cc2)s1` came in with a logD of 1.689. In addition, the Ki was found to be 800 nM at Carbonic anhydrase 1 and 21 nM at Carbonic anhydrase 4. In addition, the Kin was determined as 7.5 h⁻¹ in the data set listed under Oryctolagus cuniculus [5] and 4.1 h⁻¹ in the data set filed under Oryctolagus cuniculus [6].
As for `NS(=O)(=O)c1nnc(NS(=O)(=O)c2ccc(NC(=O)C(F)(F)C(F)(F)C(F)(F)C(F)(F)C(F)(F)C(F)(F)C(F)(F)C(F)(F)F)cc2)s1`, the log distribution coefficient (logD) in data set [4] came out at 1.436. For the same compound, the inhibitory constant (Ki) on Carbonic anhydrase 1 was 600 nM; on Carbonic anhydrase 4 it was 13 nM. The Kin in the data set filed under Oryctolagus cuniculus [5] was found to be 8 h⁻¹; in the data set listed under Oryctolagus cuniculus [6] it was 3.2 h⁻¹.
Turning to `NS(=O)(=O)c1ccc(NS(=O)(=O)c2c(F)c(F)c(F)c(F)c2F)c(Cl)c1`, the Ki on Carbonic anhydrase 1 amounted to 1450 nM; on Carbonic anhydrase 4, 540 nM.
The matching figures for `NS(=O)(=O)c1ccc(Nc2ccnc(NS(=O)(=O)c3c(F)c(F)c(F)c(F)c3F)n2)cc1`: 325 nM and 24 nM.
Regarding `NS(=O)(=O)c1nc2ccc(OS(=O)(=O)C(F)(F)F)cc2s1`, the inhibitory constant (Ki) came out at 55 nM at Carbonic anhydrase 1 and 10 nM on Carbonic anhydrase 4.
For `NS(=O)(=O)c1ccc(COS(=O)(=O)C(F)(F)C(F)(F)C(F)(F)C(F)(F)F)cc1`, the Ki on Carbonic anhydrase 1 was found to be 24500 nM; at Carbonic anhydrase 4, 10600 nM.
The matching figures for `NS(=O)(=O)c1ccc(CCOC(=O)c2c(F)c(F)c(F)c(F)c2F)cc1`: 1250 nM and 400 nM.
On the same counts, the results for `NS(=O)(=O)c1ccc(CCNS(=O)(=O)C(F)(F)C(F)(F)C(F)(F)C(F)(F)C(F)(F)C(F)(F)C(F)(F)C(F)(F)F)cc1` are 965 nM and 470 nM.
On the same counts, the results for `NS(=O)(=O)c1ccc(NS(=O)(=O)C(F)(F)C(F)(F)C(F)(F)C(F)(F)C(F)(F)C(F)(F)C(F)(F)C(F)(F)F)c(F)c1` are 1450 nM and 500 nM.
With `NS(=O)(=O)c1cccc(NS(=O)(=O)c2ccc(NS(=O)(=O)c3c(F)c(F)c(F)c(F)c3F)cc2)c1`, the results for the Ki at Carbonic anhydrase 1 and at Carbonic anhydrase 4 were 150 nM and 16 nM, respectively.
The matching figures for `NS(=O)(=O)c1ccc(CCOS(=O)(=O)C(F)(F)C(F)(F)C(F)(F)C(F)(F)F)cc1`: 20900 nM and 9200 nM.
On the same counts, the results for `NS(=O)(=O)c1ccc(NC(=O)c2c(F)c(F)c(F)c(F)c2F)c(F)c1` are 760 nM and 185 nM.
Regarding `CC(=O)/N=c1/sc(S(N)(=O)=O)nn1C` [METHAZOLAMIDE], the logD in [7] was found to be 0.06. The Kin was determined as 13000 h⁻¹ in the data set filed under Oryctolagus cuniculus [5] and 1900 h⁻¹ in the data set listed under Oryctolagus cuniculus [6].
